We go through 3 molecules from US20250041204A1, “COMPOSITION COMPRISING LACTOBACILLUS CRISPATUS BACTERIAL LYSATES AND/OR BACTERIA FOR IMPROVING SKIN CONDITION” (BIOTIX PTE LTD, priority 2021, published 2025).

Data set [1] relates to primary adult keratinocytes (NHEK). The data set is described as follows: In vitro irritation model (SDS, MTT survival). As to conditions: for protection of keratinocytes from SDS induced cell damage: in vitro irritant test, comparison of active principles. Format: cell-based. The protocol:
Next, the functional effects of L. Crispatus in keratinocytes was investigated using an in vitro irritation model using primary adult keratinocytes (NHEK).
Primary keratinocytes from passage 2 to 3 were cultured in 96 well plates at a seed concentration of 7,000 cells/well and cultured in complete keratinocyte medium. […] After 2 hours pre incubation, cells were treated with SDS. 2 hours later MTT was added to the culture and incubated for further 2 hours for a total incubation time of 6 hours. After incubation, the MTT assay was developed according to manufacturing instruction and O.D was measured in a 96 well plate reader to determine the survival rate of the keratinocytes.

Data set [2] relates to skin of healthy volunteers. The data set can be described thus: Skin irritant test in healthy volunteers (occlusive plaster on forearm). It counts as in vivo, human. To be noted: SDS 4% in PBS alone, 24 hours occlusion. How it is done:
The same amount of each solution was applied to a plaster with a dimension of 1 cm^2. The plasters containing the solutions were then applied on the forearm of healthy donors in occlusion to increase penetration of the solution into the skin. 24 hours after application, the plasters were removed, pictures were recorded and irritation was evaluated by blinded dermatologists.

Take `CC(C)(CO)[C@@H](O)C(=O)NCCCO` [Panthenol]: in data set [1], the “protection of keratinocytes from SDS induced cell damage” value is listed as “not any other active principle protected”.
Regarding `CCCCCCCCCCCCOS(=O)(=O)[O-].[Na+]` [SDS], the “skin inflammation (erythema and immune cell infiltration)” value in data set [2] is given as “induced skin inflammation in all the individuals”. In addition, in data set [1] (SDS alone, 6 to 8 hours incubation, MTT), the survival rate is 0%.
In the case of Ceramides, the “protection of keratinocytes from SDS induced cell damage” value in data set [1] is listed as “not any other active principle protected”.
